Entries after “also recorded” stand apart in the source; their conditions may differ.
test: Vaporization rates according to temperature by thermogravimetric analysis (FIG. 4); assay type: physicochemical; conditions: vs Ti(mpd)(thd)2, Ti(thd)2(O-iPr)2, Ba(methd)2, Sr(methd)2
Excerpt: Moreover, vaporization rates of the precursor Ti(2meip)2 was compared to that of the commercial precursors Ti(mpd)(thd)2, Ti(thd)2 (O-iPr)2, Ba(methd)2 and Sr(methd)2 The results are shown in FIG. 4.

Row | Vapor pressure at the respective temperatures compared to the commercial precursors | Substance
1 | low in their vapor pressure | Titanium bis[4-(2-methylethoxy)imino-2-pentanoate] [Ti(2meip)2]

test: Solubility of precursor in organic solvents; assay type: physicochemical; conditions: 0.5 g in 5 ml of methanol
Experimental: To evaluate solubility of precursors required in introducing the precursors in liquid phase for the deposition of thin films, the precursor Ti(eip)2 prepared in Example 11 and the precursor Ti(2meip)2 prepared in Example 12 were dissolved in methanol and n-butyl acetate, respectively. […] In contrast, 0.5 g of the precursor Ti(2meip)2 containing asymmetric carbons on its ligand was soluble in both methanol and n-butyl acetate.

Row | Solubility in methanol | Substance
2 | soluble | Titanium bis[4-(ethoxy)imino-2-pentanoate] [Ti(eip)2]
3 | soluble | Titanium bis[4-(2-methylethoxy)imino-2-pentanoate] [Ti(2meip)2]

same assay, conditions: 0.5 g in 5 ml of n-butyl acetate

Row | Solubility in n-butyl acetate | Substance
4 | insoluble | Titanium bis[4-(ethoxy)imino-2-pentanoate] [Ti(eip)2]
5 | soluble | Titanium bis[4-(2-methylethoxy)imino-2-pentanoate] [Ti(2meip)2]

same assay, conditions: relative to Ti(2meip)2

Row | Enhanced solubility over the precursor Ti(2meip)2 [%] | Substance
6 | 20 | Titanium bis[2,2-dimethyl-5-(2-methylethoxy)imino-3-heptanoate] [Ti(22dm2meih)2]

test: Residue amount by thermal gravimetric analysis (TGA); assay type: physicochemical; conditions: not given
Experimental: (§1) The physical properties set forth in Tables 1 and 2 were measured by the following method: the melting point and vaporization temperature were measured from endothermic peaks of TG-DSC curves. However, the values indicated by the symbol * in Table 1 were measured by a melting point-measuring device, because the heat absorption by vaporization occurred along with the melting of the precursors during the measurement. The residue amounts were measured by thermal gravimetric analysis (TGA) under atmospheric pressure (N2, 20 ml/min) and recorded as residual weight of the precursors at 550° C.

Row | Residue after evaporation | Substance
7 | about 8% | Titanium bis[4-(ethoxy)imino-2-pentanoate] [Ti(eip)2]

same assay, conditions: Table 1; TGA, atmospheric pressure, N2 20 ml/min, residual weight at 550° C.

Row | Residue amount [%] | Substance
8 | 3.6 | Titanium bis[2,6-dimethyl-5-(1-methylethoxy)imino-3-heptanoate] [Ti(26dm1meih)2]
9 | 0.5 | Titanium bis[2,2-dimethyl-5-(2-methylethoxy)imino-3-heptanoate] [Ti(22dm2meih)2]
10 | 13.7 | Titanium bis[4-(1,1-dimethylethoxy)imino-2-pentanoate] [Ti(1deip)2]
11 | 3.3 | Titanium bis[4-(1-methylethoxy)imino-2-pentanoate] [Ti(1meip)2]
12 | 7.6 | Titanium bis[4-(1-ethylethoxy)imino-2-pentanoate] [Ti(1eeip)2]
13 | 8.0 | Titanium bis[4-(ethoxy)imino-2-pentanoate] [Ti(eip)2]
14 | 8.3 | Titanium bis[2,6-dimethyl-5-(2-methylethoxy)imino-3-heptanoate] [Ti(26dm2meih)2]
15 | <0.5 | Titanium bis[4-(2-methylethoxy)imino-2-pentanoate] [Ti(2meip)2]
16 | 10.6 | Titanium bis[2,2-dimethyl-5-(ethoxy)imino-3-heptanoate] [Ti(22dmeih)2]
17 | 26.6 | Titanium bis[4-(n-propoxy)imino-2-pentanoate] [Ti(pip)2]

same assay, conditions: Table 2, prior art precursors; TGA, atmospheric pressure, N2 20 ml/min, residual weight at 550° C.

Row | Substance | Residue amount [%]
18 | Titanium [2-methyl-2,4-dioxy-pentane]-bis[(2,2,6,6-tetramethyl-3,5-heptanedionate)] [Ti(mpd)(thd)2, reference compound] | <0.5
19 | Titanium bis(iso-propoxide)bis[(2,2,6,6-tetramethyl-3,5-heptanedionate)] [Ti(OiPr)2(thd)2, reference compound] | 7
20 | Strontium bis[1-methoxyethoxy-2,2,6,6-tetramethyl-3,5-heptanedionate] [Sr(methd)2, reference compound] | 3.1
21 | Barium bis[1-methoxyethoxy-2,2,6,6-tetramethyl-3,5-heptanedionate] [Ba(methd)2, reference compound] | 8.3

same assay, conditions: in words

Row | Residues after being vaporized | Substance
22 | no residues | Titanium bis[2,2-dimethyl-5-(2-methylethoxy)imino-3-heptanoate] [Ti(22dm2meih)2]
23 | no residues | Titanium bis[4-(2-methylethoxy)imino-2-pentanoate] [Ti(2meip)2]

test: Moisture proof of precursor (left to stand in air, NMR analysis); assay type: physicochemical; conditions: left to stand in air for three months or more
Experimental: 1.0 g of the precursor Ti(eip)2 prepared in Example 11 and 1.0 9 of the precursor Ti(2meip)2 prepared in Example 12 were placed in vials, respectively, and left to stand in air for three months or more. The analysis by NMR of the precursors was then carried out.

Row | Substance | Stability on standing in air (NMR)
24 | Titanium bis[4-(ethoxy)imino-2-pentanoate] [Ti(eip)2] | no peaks of non-coordinated ligands
25 | Titanium bis[4-(2-methylethoxy)imino-2-pentanoate] [Ti(2meip)2] | no peaks of non-coordinated ligands; also recorded: not structurally changed

test: TG-DSC analysis in air (thermal decomposition); assay type: physicochemical; conditions: TG-DSC in air, 30 ml/min, 10° C./min
Experimental: (§2) TG-DSC analysis for the precursor Ti(eip)2 according to Example 11 and the precursor Ti(2meip)2 according to Example 12 was carried out under atmospheric pressure in nitrogen gas or in air, and under a reduced pressure (1.3 mbar) using Netzsch STA 449C equipment. In this analysis, the precursors were heated to 550° C. at a scanning rate of 10° C./min in nitrogen gas of a flow rate of 20 ml/min, or in air of a flow rate of 30 ml/min.
(§3) (see, FIG. 1b). […] This difference is due to that Ti(2meip)2 has a relatively weak Ti-N bond compared with a Ti-O bond and has a homoleptic structure.

Row | Thermal decomposition, exothermic peak temperature | Substance
26 | about 315 °C | Titanium bis[4-(2-methylethoxy)imino-2-pentanoate] [Ti(2meip)2]

same assay, conditions: in words

Row | Substance | Thermal decomposition behaviour (exothermic peak)
27 | Titanium [2-methyl-2,4-dioxy-pentane]-bis[(2,2,6,6-tetramethyl-3,5-heptanedionate)] [Ti(mpd)(thd)2, reference compound] | weak exothermic peak over a wide range of temperature
28 | Titanium bis(iso-propoxide)bis[(2,2,6,6-tetramethyl-3,5-heptanedionate)] [Ti(OiPr)2(thd)2, reference compound] | weak exothermic peak over a wide range of temperature

test: Vaporization temperature from endothermic peaks of TG-DSC curves; assay type: physicochemical; conditions: Table 1; endothermic peak of TG-DSC curve
Experimental: as §1, §2, §3

Row | Vaporization temp. [°C] | Substance
29 | 285 | Titanium bis[2,6-dimethyl-5-(1-methylethoxy)imino-3-heptanoate] [Ti(26dm1meih)2]
30 | 287 | Titanium bis[2,2-dimethyl-5-(2-methylethoxy)imino-3-heptanoate] [Ti(22dm2meih)2]
31 | 290 | Titanium bis[4-(1,1-dimethylethoxy)imino-2-pentanoate] [Ti(1deip)2]
32 | 295 | Titanium bis[4-(1-methylethoxy)imino-2-pentanoate] [Ti(1meip)2]
33 | 303 | Titanium bis[4-(1-ethylethoxy)imino-2-pentanoate] [Ti(1eeip)2]
34 | 323 | Titanium bis[4-(ethoxy)imino-2-pentanoate] [Ti(eip)2]
35 | 283 | Titanium bis[2,6-dimethyl-5-(2-methylethoxy)imino-3-heptanoate] [Ti(26dm2meih)2]
36 | 290 | Titanium bis[4-(2-methylethoxy)imino-2-pentanoate] [Ti(2meip)2]
37 | 307 | Titanium bis[2,2-dimethyl-5-(ethoxy)imino-3-heptanoate] [Ti(22dmeih)2]

same assay, conditions: Table 2, prior art precursors; endothermic peak of TG-DSC curve

Row | Substance | Vaporization temp. [°C]
38 | Titanium [2-methyl-2,4-dioxy-pentane]-bis[(2,2,6,6-tetramethyl-3,5-heptanedionate)] [Ti(mpd)(thd)2, reference compound] | 248
39 | Titanium bis(iso-propoxide)bis[(2,2,6,6-tetramethyl-3,5-heptanedionate)] [Ti(OiPr)2(thd)2, reference compound] | 240
40 | Strontium bis[1-methoxyethoxy-2,2,6,6-tetramethyl-3,5-heptanedionate] [Sr(methd)2, reference compound] | 389
41 | Barium bis[1-methoxyethoxy-2,2,6,6-tetramethyl-3,5-heptanedionate] [Ba(methd)2, reference compound] | 391

same assay, conditions: atmospheric pressure / nitrogen atmosphere, without thermal decomposition

Row | Temperature at which the precursor is vaporized [°C] | Substance
42 | 287 | Titanium bis[2,2-dimethyl-5-(2-methylethoxy)imino-3-heptanoate] [Ti(22dm2meih)2]
